Experimental data: ChEMBL document CHEMBL1201862, “PubChem BioAssay data set” (2004)
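48-hour exposure; five concentrations; linearly interpolated endpoints. GI50 = concentration required for 50% inhibition of growth.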 Active and inactive are the calls of the source. No stated cut-off is given here; in the data, active = GI50 up to about 1.1 µM and inactive = higher.

Key:
Test in all cases: NCI-60 cell line screen, 48 h
[1] = tested on: 786-0
[2] = tested on: A498
[3] = tested on: A549
[4] = tested on: ACHN
[5] = tested on: BT-549
[6] = tested on: CAKI-1
[7] = tested on: CCRF-CEM
[8] = tested on: COLO 205
[9] = tested on: DU-145
[10] = tested on: EKVX
[11] = tested on: HCT-116
[12] = tested on: HCT-15
[13] = tested on: HL-60
[14] = tested on: HOP-62
[15] = tested on: HOP-92
[16] = tested on: HT-29
[17] = tested on: Hs-578T
[18] = tested on: IGROV-1
[19] = tested on: K562
[20] = tested on: KM12
[21] = tested on: LOX IMVI
[22] = tested on: M14
[23] = tested on: MCF7
[24] = tested on: MDA-MB-231
[25] = tested on: MDA-MB-435
[26] = tested on: MDA-N
[27] = tested on: Malme-3M
[28] = tested on: NCI-H226
[29] = tested on: NCI-H23
[30] = tested on: NCI-H460
[31] = tested on: NCI-H522
[32] = tested on: NCI/ADR-RES
[33] = tested on: OVCAR-3
[34] = tested on: OVCAR-4
[35] = tested on: OVCAR-5
[36] = tested on: OVCAR-8
[37] = tested on: PC-3
[38] = tested on: RPMI-8226
[39] = tested on: RXF 393
[40] = tested on: SF-268
[41] = tested on: SF-295
[42] = tested on: SK-MEL-28
[43] = tested on: SK-MEL-2
[44] = tested on: SK-MEL-5
[45] = tested on: SK-OV-3
[46] = tested on: SN12C
[47] = tested on: SNB-19
[48] = tested on: SR
[49] = tested on: SW-620
[50] = tested on: T47D
[51] = tested on: TK-10
[52] = tested on: U-251
[53] = tested on: UACC-257
[54] = tested on: UACC-62
[55] = tested on: UO-31

Structure (SMILES): CC(=O)NC(Cc1c[nH]c2ccccc12)C(=O)O (stereo not given)
- GI50 [1]: > 100 µM (inactive)
- GI50 [2]: > 100 µM (inactive)
- GI50 [3]: > 100 µM (inactive)
- GI50 [4]: > 100 µM (inactive)
- GI50 [5]: > 100 µM (inactive)
- GI50 [6]: > 100 µM (inactive)
- GI50 [7]: > 100 µM (inactive)
- GI50 [8]: > 100 µM (inactive)
- GI50 [9]: > 100 µM (inactive)
- GI50 [10]: > 100 µM (inactive)
- GI50 [11]: > 100 µM (inactive)
- GI50 [12]: > 100 µM
- GI50 [13]: > 100 µM (inactive)
- GI50 [14]: > 100 µM (inactive)
- GI50 [15]: > 100 µM (inactive)
- GI50 [16]: > 100 µM (inactive)
- GI50 [17]: > 100 µM (inactive)
- GI50 [18]: > 100 µM (inactive)
- GI50 [19]: > 100 µM (inactive)
- GI50 [20]: > 100 µM (inactive)
- GI50 [21]: > 100 µM (inactive)
- GI50 [22]: > 100 µM (inactive)
- GI50 [23]: > 100 µM (inactive)
- GI50 [24]: > 100 µM (inactive)
- GI50 [25]: > 100 µM (inactive)
- GI50 [26]: > 100 µM (inactive)
- GI50 [27]: > 100 µM (inactive)
- GI50 [28]: > 100 µM (inactive)
- GI50 [29]: > 100 µM (inactive)
- GI50 [30]: > 100 µM (inactive)
- GI50 [31]: > 100 µM (inactive)
- GI50 [32]: > 100 µM (inactive)
- GI50 [33]: > 100 µM (inactive)
- GI50 [34]: > 100 µM (inactive)
- GI50 [35]: > 100 µM (inactive)
- GI50 [36]: > 100 µM (inactive)
- GI50 [37]: > 100 µM (inactive)
- GI50 [38]: > 100 µM (inactive)
- GI50 [39]: > 100 µM (inactive)
- GI50 [40]: > 100 µM (inactive)
- GI50 [41]: > 100 µM (inactive)
- GI50 [42]: > 100 µM (inactive)
- GI50 [43]: > 100 µM (inactive)
- GI50 [44]: > 100 µM (inactive)
- GI50 [45]: > 100 µM (inactive)
- GI50 [46]: > 100 µM (inactive)
- GI50 [47]: > 100 µM (inactive)
- GI50 [48]: > 100 µM (inactive)
- GI50 [49]: > 100 µM (inactive)
- GI50 [50]: > 100 µM (inactive)
- GI50 [51]: > 100 µM (inactive)
- GI50 [52]: > 100 µM (inactive)
- GI50 [53]: 26.2 µM (inactive)
- GI50 [54]: > 100 µM (inactive)
- GI50 [55]: > 100 µM (inactive)
